Test results published in ChEMBL document CHEMBL3727348, “3-(aryl or heteroaryl) methyleneindolin-2-one derivatives as inhibitors of cancer stem cell pathway kinases for the treatment of cancer” (2014).

Experiments:
Assay type in all cases: functional, cell-based
FaDu [1] = test: Cytotoxic activity against human FADU cancer stem cells incubated for 72 hrs by Cell-titer-Glo luminescence assay
ACHN [2] = test: Cytotoxic activity against human ACHN bulk cells incubated for 72 hrs by Cell-titer-Glo luminescence assay
A549 [3] = test: Cytotoxic activity against human A549 cancer stem cells incubated for 72 hrs by Cell-titer-Glo luminescence assay; settings: A549, 72 h
ACHN [4] = test: Cytotoxic activity against human ACHN cancer stem cells incubated for 72 hrs by Cell-titer-Glo luminescence assay
FaDu [5] = test: Cytotoxic activity against human FADU bulk cells incubated for 72 hrs by Cell-titer-Glo luminescence assay
A549 [6] = test: Cytotoxic activity against human A549 bulk cells incubated for 72 hrs by Cell-titer-Glo luminescence assay; settings: A549, 72 h

Compound | IC50 (FaDu [1]) [µM] | IC50 (ACHN [2]) [µM] | IC50 (A549 [3]) [µM] | IC50 (ACHN [4]) [µM] | IC50 (FaDu [5]) [µM] | IC50 (A549 [6]) [µM]
CCN(CC)CCNC(=O)c1c(C)[nH]c(/C=C2\C(=O)Nc3ccc(-c4cc(-c5ccccc5)ccn4)cc32)c1C | 9.67 | 2.41 | 2 | 0.9 | 2.58 | 1.5
CCN(CC)CCNC(=O)c1c(C)[nH]c(/C=C2\C(=O)Nc3cc(-c4csc(-n5cccn5)n4)ccc32)c1C | 0.78 | 2.6 | 2.93 | 0.17 | 5.3 | 5.8
CCN(CC)CCNC(=O)c1c(C)[nH]c(/C=C2\C(=O)Nc3cc(-c4cccc5ncccc45)ccc32)c1C | 2.64 | 2.66 | 8.61 | 0.42 | 4.83 | 2.88
CCN(CC)CCNC(=O)c1c(C)[nH]c(/C=C2\C(=O)Nc3ccc(-c4ccc5c(c4)CC(=O)N5)cc32)c1C | 15.5 | 18.9 | 29.2 | 20.8 | 25.4 | 19.7
Cc1ccc(-c2nc(-c3ccc4c(c3)/C(=C/c3[nH]c(C)c(C(=O)NCCN5CCCC5)c3C)C(=O)N4)cs2)cc1 | 0.31 | 2.32 | 12.2 | 0.14 | 4.22 | 5.99
CCN(CC)CCN(C)C(=O)c1c(C)[nH]c(/C=C2\C(=O)Nc3ccc(-c4csc(-c5ccccc5)n4)cc32)c1C | 3.6 | 11.3 | 10.5 | 0.69 | 18.3 | 9.94
CCN(CC)CCNC(=O)c1c(C)[nH]c(/C=C2\C(=O)Nc3ccc(-c4cnc5ccccn45)cc32)c1C | 17.6 | 4.65 | 17.2 | 3.44 | 4.63 | 5.86
CCN(CC)CCNC(=O)c1c(C)[nH]c(/C=C2\C(=O)Nc3ccc(-c4ccc(C=O)cc4)cc32)c1C | 7.51 | 2.81 | 5.84 | 4.34 | 12.1 | 10.6
CCN(CC)CCNC(=O)CCc1c(C)[nH]c(/C=C2\C(=O)Nc3ccc(-c4csc(-c5ccncc5)n4)cc32)c1C | 4.57 | 7.42 | 35.7 | 1.24 | 28 | 10.1
CCN(CC)CCNC(=O)c1c(C)[nH]c(/C=C2\C(=O)Nc3ccc(-c4cnc5ccccc5n4)cc32)c1C | 0.04 | 5.73 | 42.3 | 5.59 | 2.66 | 8.13
Cc1cc(C)c(/C=C2\C(=O)Nc3ccc(-c4ccc(O)cc4C)cc32)[nH]1 | 14.4 | 14.9 | 36.8 | 21.1 | 14.7 | 12.5
Cc1[nH]c(/C=C2\C(=O)Nc3ccc(-c4ccc(-c5ccccc5)s4)cc32)c(C)c1C(=O)N1CCOCC1 | 2.47 | 12.8 | 11 | 0.23 | 21.1 | 10.1
CCN(CC)CCNC(=O)c1c(C)[nH]c(/C=C2\C(=O)Nc3ccc(-c4ccc(OC)cc4C)cc32)c1C | 1.4 | 2.26 | 4.61 | 1.42 | 2.31 | 1.74
CCN(CC)CCNC(=O)c1c(C)[nH]c(/C=C2\C(=O)Nc3ccc(-c4ncccc4OC)cc32)c1C | 0.07 | 7.14 | 6.84 | 1.41 | 2.63 | 7.48
CCN(CC)CCNC(=O)c1c(C)[nH]c(/C=C2\C(=O)Nc3cc(-c4ccc(O)cc4C)ccc32)c1C | 1.54 | 2.53 | 7.55 | 2.17 | 2.14 | 2.76
CCN(CC)CCNC(=O)c1c(C)[nH]c(/C=C2\C(=O)Nc3ccc(-c4ccc(C(=O)O)s4)cc32)c1C | 4.3 | 2.04 | 8.82 | 2.28 | 1.21 | 2.2
CCN(CC)CCNC(=O)c1c(C)[nH]c(/C=C2\C(=O)Nc3ccc(-c4ccc(C)cn4)cc32)c1C | 0.22 | 2.92 | 3.38 | 1.16 | 3.05 | 6.51
CCN(CC)CCNC(=O)c1c(C)[nH]c(/C=C2\C(=O)Nc3ccc(-c4ccccn4)cc32)c1C | 0.18 | 2.26 | 5.45 | 1.06 | 2.56 | 7.23
Cc1[nH]c(/C=C2\C(=O)Nc3ccc(-c4csc(-c5ccccc5)n4)cc32)c(C)c1S(=O)(=O)N1CCOCC1 | 0.21 | 10.7 | 3.73 | 0.56 | 11.4 | 7.28
CCN(CC)CCNC(=O)c1c(C)[nH]c(/C=C2\C(=O)Nc3ccc(-c4csc(-n5ccnc5)n4)cc32)c1C | 21.7 | 9.57 | 18.8 | 2.99 | 5.57 | 6.16

Compound | IC50 (FaDu [1]) [µM] | IC50 (ACHN [2]) [µM] | IC50 (A549 [3]) [µM] | IC50 (ACHN [4]) [µM] | IC50 (FaDu [5]) [µM] | IC50 (A549 [6]) [µM]
CCN(CC)CCNC(=O)c1c(C)[nH]c(/C=C2\C(=O)Nc3cc(-c4cnc5ccccc5n4)ccc32)c1C | 2.24 | 10.9 | 42.6 | 6.97 | 7.45 | 7.07
CCN(CC)CCNC(=O)c1c(C)[nH]c(/C=C2\C(=O)Nc3ccc(-c4ncccn4)cc32)c1C | 0.09 | 3.5 | 18 | 1.15 | 6.02 | 15.4
O=C1Nc2ccc(-c3csc(-c4ccncc4)n3)cc2/C1=C/c1cnc[nH]1 | 22.1 | 3.61 | 7.18 | 28.9 | 1.66 | 9.19
O=C1Nc2ccc(-c3csc(C4CCNCC4)n3)cc2/C1=C/c1cc2c([nH]1)CCCC2 | 12 | 18.8 | 22.1 | 2.68 | 21.1 | 9.39
CCN(CC)CCNC(=O)c1c(C)[nH]c(/C=C2\C(=O)Nc3cc(-c4ccc(C(=O)c5ccccc5)cc4)ccc32)c1C | 1.46 | 4.11 | 3.16 | 1.63 | 4.46 | 3.65
Cc1cc(C)c(/C=C2\C(=O)Nc3ccc(-c4csc(-n5ccnc5)n4)cc32)[nH]1 | 37.4 | 8.84 | 35 | 2.72 | 14.5 | 9.31
CCN(CC)CCNC(=O)c1c(C)[nH]c(/C=C2\C(=O)Nc3ccc(-c4cnc5cn[nH]c5c4)cc32)c1C | 0.16 | 2.74 | 26.4 | 10.8 | 1.49 | 3.24
CCN(CC)CCNC(=O)c1c(C)[nH]c(/C=C2\C(=O)Nc3ccc(-c4ccc(C#N)c(F)c4)cc32)c1C | 3.48 | 13.3 | 12 | 1.71 | 14 | 14.5
O=C1Nc2ccc(-c3csc(-c4ccccc4)n3)cc2/C1=C/c1ncc[nH]1 | 2.5 | 1.44 | 2.31 | 2.91 | 7.57 | 17.2
CCN(CC)CCNC(=O)c1c(C)[nH]c(/C=C2\C(=O)Nc3ccc(-c4ncccc4C)cc32)c1C | 20 | 4.15 | 13.1 | 1.88 | 7.67 | 4.14
CCN(CC)CCNC(=O)c1c(C)[nH]c(/C=C2\C(=O)Nc3ccc(-c4ccc(-c5ccccc5)nc4)cc32)c1C | 3.96 | 7.41 | 6.45 | 0.63 | 4.92 | 2.3
CCN(CC)CCNC(=O)c1c(C)[nH]c(/C=C2\C(=O)Nc3ccc(-c4cnc5ccccc5c4)cc32)c1C | 5.47 | 6.39 | 6.83 | 0.62 | 4.59 | 3.85
CCN(CC)CCNC(=O)c1c(C)[nH]c(/C=C2\C(=O)Nc3ccc(-c4ccc(OC)cn4)cc32)c1C | 0.16 | 6.44 | 8.89 | 1.08 | 7.01 | 10.8
CCN(CC)CCNC(=O)c1cc(C)c(/C=C2\C(=O)Nc3ccc(-c4csc(-c5ccccc5)n4)cc32)[nH]1 | 3.13 | 14.9 | 26.7 | 4.04 | 11.4 | 4
CCN(CC)CCNC(=O)c1c(C)[nH]c(/C=C2\C(=O)Nc3ccc(-c4csc(-n5cccn5)n4)cc32)c1C | 5.11 | 7.88 | 6.64 | 0.62 | 4.68 | 3.71
CCN(CC)CCNC(=O)c1c(C)[nH]c(/C=C2\C(=O)Nc3ccc(-c4cscc4C)cc32)c1C | 9.1 | 2.68 | 3.94 | 0.48 | 3.74 | 2.01
CCN(CC)CCNC(=O)c1c(C)[nH]c(/C=C2\C(=O)Nc3ccc(-c4cncnc4)cc32)c1C | 10.1 | 3.66 | 18 | 0.55 | 4.55 | 7.33
O=C1Nc2ccc(-c3csc(C4CCNCC4)n3)cc2/C1=C/c1cc2ccccc2[nH]1 | 0.76 | 4.12 | 2.04 | 0.1 | 5.16 | 5.55
Cc1cc(C)c(/C=C2\C(=O)Nc3ccc(-c4n[nH]c5ccccc45)cc32)[nH]1 | 5.33 | 8.73 | 7.28 | 3.1 | 4.43 | 6.45
CCN(CC)CCNC(=O)c1c(C)[nH]c(/C=C2\C(=O)Nc3ccc(-c4cnc5cccnn45)cc32)c1C | 0.06 | 3.64 | 6.64 | 2.73 | 1.74 | 3.66
